US20080312192A1, “Diaryl Urea Derivatives in the Treatment of Protein Kinase Dependent Diseases” (priority 2003, published 2008)

What was measured:
[1] = system: ITD-Ba/F3; conditions: Mus musculus, BaF3, 48 h, read-out: Inhibition of Flt-3 dependent Proliferation (ED50) ITD-mutant
Method: (§2) Inhibition of Proliferation in Flt-3 Dependent Ba/F3 Cells:
(§3) The compound's potential to penetrate cell membranes and exert antiproliferative effects is determined in Ba/F3 cells dependent on mutated [ITD or D835Y; Gilliland and Griffin, Blood, Vol. 100, No. 5, 153242 (2002)] Flt-3 receptor kinases.
(§4) A modified protocol of the YO-PRO-1 assay in a 96-well format is based on the use of the wild-type IL-3-dependent hematopoietic cell line Ba/F3 (DSMZ, Braunschweig, Germany) and the mutant sub-lines ITD-Ba/F3 or D835Y-Ba/F3 [Weisberg et al., Cancer Cell 1 (5):433-43 (2000)] expressing constitutively activating Flt-3 kinases.
(§5) ITD-FLT3- or D835Y-FLT3-Ba/F3 cells are diluted in fresh medium to a final concentration of 3×10^5 cells per ml and 50 μl aliquots seeded into 96-well plates (1.5×10^4 cells per well). Subsequently, 50 μl 2× compound solutions were added and cells incubated for 48 h. The anti-proliferative and apoptotic activity of a compound is initially tested in triplicates at 10 μM, 1 μM and 0.1 μM concentration on both cell lines. Cells treated with DMSO alone (added to a final concentration of 0.1%) always serves as a control. In addition, a plate blank value is routinely determined in a well containing only 100 μl of medium and no cells.
(§6) To further profile a compound an ED50 determination is done starting at 10 μM or 3 μM of the compound of interest. From those concentrations, stepwise nine dilutions are prepared reaching the final concentrations of 2 μM and 0.5 μM, respectively.
(§7) Activity of inhibitors is assessed by the YO-PRO-1 assay as previously described in [Idziorek et al., J. Immunol. […] Briefly, after the treatment period of 48 h, a 25 μl aliquot of a solution containing 100 mM sodium citrate, pH 4.0, 134 mM sodium chloride and 12.5 μM YO-PRO-1 dye (YO-PRO-1 iodide, #Y3603, Molecular Probes) is directly added to the 100 μl medium in the wells of the 96-well plate. That results in a final dye concentration of 2.5 μM, the plate is then incubated for 10 min at ambient temperature in the dark. The uptake of the YO-PRO-1 dye into cells is assessed by a first measurement using a Cytofluor II 96-well plate reader (PerSeptive Biosystems) with the following settings: Excitation (nm) 485120 and Emission (nm) 530/25, Gain 75. After this first reading, 25 μl of lysis buffer consisting of 20 mM sodium citrate, pH 4.0, 26.8 mM sodium chloride, 0.4% NP40, 20 mM EDTA and 20 mM is added to each well. Cell lysis is completed within 60 min at room temperature and total amount of YO-PRO-1 bound to DNA is determined by a second measurement using the Cytofluor II 96-well reader with the identical setting as described above.

[2] = system: D835Y-Ba/F3; conditions: Mus musculus, BaF3, 48 h, read-out: Inhibition of Flt-3 dependent Proliferation (ED50) D835-mutant
Method: as §2, §3, §4, §5, §6, §7

[3] = target: T1, RET (Homo sapiens, UniProt P07949); test: RET kinase inhibition (33P incorporation into poly(Glu,Tyr), GST-wtRET or GST-RET-Men2B); type: biochemical
T1 construct: expresses the amino acid region 658-1072 (Swiss prot No. Q9BTB0); made in house; host or cells: Sf9 insect cells (baculovirus, vector pFB-GSTX3)
T1 sequence (P07949 658-1072 isoform P07949-2): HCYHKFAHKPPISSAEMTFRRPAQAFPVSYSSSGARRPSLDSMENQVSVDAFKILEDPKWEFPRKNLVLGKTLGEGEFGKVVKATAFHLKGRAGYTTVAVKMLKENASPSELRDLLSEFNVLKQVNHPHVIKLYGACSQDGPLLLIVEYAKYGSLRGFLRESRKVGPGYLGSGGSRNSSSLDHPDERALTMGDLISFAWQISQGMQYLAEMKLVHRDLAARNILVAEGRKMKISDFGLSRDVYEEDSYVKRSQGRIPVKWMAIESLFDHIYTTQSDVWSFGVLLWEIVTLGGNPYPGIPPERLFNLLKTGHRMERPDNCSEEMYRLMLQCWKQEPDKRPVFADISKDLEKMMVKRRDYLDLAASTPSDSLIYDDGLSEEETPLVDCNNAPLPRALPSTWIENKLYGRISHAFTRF
Method: RET kinase inhibition is determined as follows:
The coding sequence for the cytoplasmic domain of wtRET is amplified by PCR from a cDNA library using specific primers. RET-Men2B is generated through site-directed mutagenesis resulting in the M918T mutation. The amplified DNA fragments and the pFB-GSTX3 vector are made compatible for ligation by digestion with SalI and KpnI. Ligation of these DNA fragments results in the baculovirus donor plasmids […] and pFB-GX3-RET-Men2B, respectively.
Production of virus: The baculovirus donor plasmids containing the kinase domains are transfected into the DH10Bac cell line (GIBCO) and the transfected cells are plated on selective agar plates. Colonies without insertion of the fusion sequence into the viral genome (carried by the bacteria) are blue. Single, white colonies are picked and viral DNA (bacmid) is isolated from the bacteria by standard plasmid purification procedures. Sf9 cells or Sf21 cells (American Type Culture Collection) are then transfected in 25 cm^2 flasks with the viral DNA using Cellfectin reagent.
Protein expression in Sf9 cells: Virus-containing media is collected from the transfected cell culture and used for infection to increase its titer. Virus-containing media obtained after two rounds of infection is used for large-scale protein expression. For large-scale protein expression 100 cm^2 round tissue culture plates are seeded with 5×10^7 cells/plate and infected with 1 mL of virus-containing media (approximately 5 MOIs). After 3 days, the cells are scraped off the plate and centrifuged at 500 rpm for 5 minutes. Cell pellets from 10-20, 100 cm^2 plates are re-suspended in 50 mL of ice-cold lysis buffer (25 mM Tris-HCl, pH 7.5, 2 mM EDTA, 1% NP-40, 1 mM DTT, 1 mM PMSF). The cells are stirred on ice for 15 minutes and then centrifuged at 5,000 rpms for 20 minutes.
(§1) Purification of GST-tagged proteins: The centrifuged cell lysate is loaded onto a 2 mL glutathione-sepharose column (Pharmacia) and washed 3× with 10 mL of 25 mM Tris-HCl, pH 7.5, 2 mM EDTA, 1 mM DTT, 200 mM NaCl. The GST-tagged proteins are then eluted by 10 applications (1 mL each) of 25 mM Tris-HCl, pH 7.5, 10 mM reduced-glutathione, 100 mM NaCl, 1 mM DTT, 10% glycerol and stored at −70° C.
Measure of enzyme activity: Tyrosine protein kinase assays with either purified GST-wtRET or GST-RET-Men2B protein are carried out in a final volume of 30 μL containing 15 ng of either GST-RET or GST-RET-Men2B protein, 20 mM Tris-HCl, pH 7.5, 1 mM MnCl2, 10 mM MgCl2, 1 mM DTT, 3 μg/mL poly(Glu, Tyr) 4:1, 1% DMSO, 2.0 μM ATP (γ-[^33P]-ATP 0.1 μCi). The activity is assayed in the presence or absence of inhibitors, by measuring the incorporation of ^33P from [γ^33P] ATP into poly(Glu, Tyr) 4:1. […] Subsequently, 40 μL of the reaction mixture are transferred onto Immobilon-PVDF membrane (Millipore) previously soaked for 5 minutes with methanol, rinsed with water, then soaked for 5 minutes with 0.5% H3PO4 and mounted on vacuum manifold with disconnected vacuum source. After spotting all samples, vacuum is connected and each well rinsed with 200 μL 0.5% H3PO4. Membranes are removed and washed 4× on a shaker with 1.0% H3PO4, once with ethanol. Membranes are counted after drying at ambient temperature, mounting in Packard TopCount 96-well frame, and addition of 10 μl/well of Microscint™ (Packard). […] One unit of protein kinase activity is defined as 1 nmole of ^33P transferred from [γ^33P] ATP to the substrate protein/minute/mg of protein at 37° C.

[4] = target: T2, Flt-3 (Homo sapiens, UniProt P36888); test: Flt-3 kinase inhibition (GST-Flt-3, 33P incorporation into poly(Glu,Tyr)); type: biochemical
T2 construct: amino acids 563-993 of the cytoplasmic kinase domain of human Flt-3; made in house; host or cells: Sf9 insect cells (baculovirus, vector pFbacG01)
T2 sequence (P36888 563-993): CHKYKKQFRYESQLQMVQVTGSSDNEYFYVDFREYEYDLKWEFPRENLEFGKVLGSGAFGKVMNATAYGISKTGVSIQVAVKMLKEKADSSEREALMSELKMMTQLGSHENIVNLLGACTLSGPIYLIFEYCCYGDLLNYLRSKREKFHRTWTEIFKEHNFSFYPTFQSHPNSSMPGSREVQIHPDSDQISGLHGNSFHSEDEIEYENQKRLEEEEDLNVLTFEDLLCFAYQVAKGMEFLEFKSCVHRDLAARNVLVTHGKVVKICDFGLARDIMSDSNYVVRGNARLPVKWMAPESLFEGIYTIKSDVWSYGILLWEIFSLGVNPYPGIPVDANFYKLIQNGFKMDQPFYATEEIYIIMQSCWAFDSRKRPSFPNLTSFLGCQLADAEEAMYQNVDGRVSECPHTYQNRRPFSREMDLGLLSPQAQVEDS
Method: Flt-3 kinase inhibition is determined as follows: The baculovirus donor vector pFbacG01 (GIBCO) is used to generate a recombinant baculovirus expressing the amino acid region amino acids 563-993 of the cytoplasmic kinase domain of human Flt-3. The coding sequence for the cytoplasmic domain of Flt-3 is amplified by PCR from human c-DNA libraries (Clontech). The amplified DNA fragments and the pFbacG01 vector are made compatible for ligation by digestion with BamHI and HindIII. Ligation of these DNA fragments results in the baculovirus donor plasmid pFbacG01-Flt-3. The production of the viruses, the expression of proteins in Sf9 cells and the purification of the GST-fused proteins are performed as follows:
Production of virus: The baculovirus donor plasmid (pFbacG01-Flt-3) containing the Flt-3 kinase domain is transfected into the DH10Bac cell line (GIBCO) and the transfected cells are plated on selective agar plates. Colonies without insertion of the fusion sequence into the viral genome (carried by the bacteria) are blue. Single white colonies are picked and viral DNA (bacmid) is isolated from the bacteria by standard plasmid purification procedures. Sf9 or Sf21 cells (American Type Culture Collection) are then transfected in flasks with the viral DNA using Cellfectin reagent.
Protein expression in Sf9 cells: Virus containing media is collected from the transfected cell culture and used for infection to increase its titre. Virus containing media obtained after two rounds of infection is used for large-scale protein expression. For large-scale protein expression 100 cm^2 round tissue culture plates are seeded with 5×10^7 cells/plate and infected with 1 mL of virus-containing media (approx. 5 MOIs). After 3 days the cells are scraped off the plate and centrifuged at 500 rpm for 5 min. Cell pellets from 10-20, 100 cm^2 plates are resuspended in 50 mL of ice-cold lysis buffer (25 mM Tris-HCl, pH 7.5, 2 mM EDTA-1% NP-40. 1 mM DTT, 1 mM PMSF). The cells are stirred on ice for 15 min and then centrifuged at 5000 rpms for 20 min.
as §1, with “protein:” for “proteins:”, “three times” for “3×”, “protein is” for “proteins are”, “Glycerol” for “glycerol”
Measurement of enzyme activity: Tyrosine protein kinase assays with purified GST-Flt-3 protein are carried out in a final volume of 30 μL containing 200-1800 ng of enzyme protein (depending on the specific activity), 20 mM Tris-HCl, pH 7.6, 3 mM MnCl2, 3 mM MgCl2, 1 mM DTT, 10 μM Na3VO4, 3 μg/mL poly(Glu, Tyr) 4:1, 1% DMSO, 8.0 μM ATP and 0.1 μCi [γ^33 P] ATP. The activity is assayed in the presence or absence of inhibitors, by measuring the incorporation of ^33P from [γ^33P] ATP into the poly(Glu,Tyr) substrate. The assay (30 μL) is carried out in 96-well plates at ambient temperature for 20 min and terminated by the addition of 20 μL of 125 mM EDTA. Subsequently, 40 μL of the reaction mixture is transferred onto Immobilon-PVDF membrane (Millipore, Bedford, Mass., USA) previously soaked for 5 min with methanol, rinsed with water, then soaked for 5 min with 0.5% H3PO4 and mounted on vacuum manifold with disconnected vacuum source. After spotting all samples, vacuum is connected and each well rinsed with 200 μL 0.5% H3PO4. Membranes are removed and washed 4× on a shaker with 1.0% H3PO4, once with ethanol. Membranes are counted after drying at ambient temperature, mounting in Packard TopCount 96-well frame, and addition of 10 μL/well of Microscint™ (Packard). IC50 values are calculated by linear regression analysis of the percentage inhibition of each compound in duplicate, at four concentrations (usually 0.01, 0.1, 1 and 10 μM). One unit of protein kinase activity is defined as 1 nmole of ^33P transferred from [γ3P] […]

EC50 [1] [nM] | EC50 [2] [nM] | IC50 [3] [nM] | melting point [°C] | IC50 [4] [nM] | SMILES
0.1 | 3.3 | 350 |  |  | CCN1CCN(Cc2ccc(NC(=O)Nc3ccc(Oc4ccnc(NC)n4)cc3)cc2C(F)(F)F)CC1 [Example 53c, 1-[4-(4-Ethyl-piperazin-1-ylmethyl)-3-trifluoromethyl-phenyl]-3-[4-(2-methylamino-pyrimidin-4-yloxy)-phenyl]-urea]
0.1 | 11.7 |  | 257 to 258 |  | CNc1nccc(Oc2ccc(NC(=O)Nc3ccc(CN4CCN(C(C)(C)C)CC4)c(C(F)(F)F)c3)cc2)n1 [Example 49, N-[4-(2-Methylamino-pyrimidin-4-yloxy)-phenyl]-N′-[4-(4-tert-butylpiperazinyl-methyl)-3-trifluoromethyl-phenyl]-urea]
 |  | 260 |  |  | CN1CCN(Cc2cc(NC(=O)Nc3ccc(Oc4cc(N)ncn4)cc3)cc(C(F)(F)F)c2)CC1 [1-[4-(6-Amino-pyrimidin-4-yloxy)-phenyl]-3-[3-(4-methyl-piperazin-1-ylmethyl)-5-trifluoromethyl-phenyl]-urea]
 |  | 110 |  |  | CNc1cc(Oc2ccc(NC(=O)Nc3cc(CN(C)C)cc(C(F)(F)F)c3)cc2)ncn1 [1-(3-Dimethylaminomethyl-5-trifluoromethyl-phenyl)-3-[4-(6-methylamino-pyrimidin-4-yloxy)-phenyl]-urea]
 |  |  | 130 to 133 | 160 | Cc1cccc(-c2ccc(NC(=O)Nc3ccc(Oc4cc(N)ncn4)cc3)cc2C(F)(F)F)n1 [Example 60, 1-[4-(6-Amino-pyrimidin-4-yloxy)-phenyl]-3-[4-(6-methyl-pyridin-2-yl)-3-trifluoromethyl-phenyl]-urea]
 |  |  | 63 to 65 | 340 | CCN(CC)Cc1cc(NC(=O)Nc2ccc(Oc3cc(N)ncn3)cc2)cc(C(F)(F)F)c1 [Example 13, N-[4-(6-Amino-pyrimidin-4-yloxy)-phenyl]-N′-(3-diethylaminomethyl-5-trifluoromethyl-phenyl)-urea]
 |  |  | 127 to 130 | 140 | CNc1cc(Oc2ccc(NC(=O)Nc3ccc(-c4ccncc4)c(C(F)(F)F)c3)cc2)ncn1 [Example 63, 1-[4-(6-Methylamino-pyrimidin-4-yloxy)-phenyl]-3-(4-pyridin-4-yl-3-trifluoromethyl-phenyl)-urea]
 |  | 590 |  |  | CNc1cc(Oc2ccc(NC(=O)Nc3cc(CN4CCN(C)CC4)cc(C(F)(F)F)c3)cc2)ncn1 [1-[4-(6-Methylamino-pyrimidin-4-yloxy)-phenyl]-3-[3-(4-methyl-piperazin-1-ylmethyl)-5-trifluoromethyl-phenyl]-urea]
< 0.2 | 3.9 |  |  |  | CNc1nccc(Oc2ccc(NC(=O)Nc3ccc(CN4CCN(C(C)C)CC4)c(C(F)(F)F)c3)cc2)n1 [Example 46, N-[4-(2-Methylamino-pyrimidin-4-yloxy)-phenyl]-N′-[4-(4-isopropylpiperazin-1-ylmethyl)-3-trifluoromethyl-phenyl]-urea]
